Holding throughout (conditions): synthetic library passage 3, intravenous, relative to wild-type AAV9
In test [1] the test system is brain. The test can be described thus: NGS fold enrichment of synthetic library (passage 3) in BALB/c mice, first cross-species screen. Type of test: in vivo. The procedure:
(§1) After creation of the synthetic library with the sub-selected variants, the synthetic library was screened (passage 3) in two NHPs (2-4 years of age) and two strains of mice, BALB/c (n=3, 6-8 weeks of age) and C57Bl/6 mice (n=3, 6-8 weeks of age), in a first cross-species evolution screen. The animals were injected intravenously with the synthetic library. After a period in vivo, (e.g., 28-days) RNA was extracted from nervous tissue, e.g., brain, spinal cord, and DRG of the NHPs and the brains of mice. Following RNA recovery and RT-PCR amplification, a systematic NGS enrichment analysis was performed, and the peptides comprised within the variants were identified and the capsid enrichment ratio for each variant compared to the wild-type AAV9 control was calculated (fold enrichment relative to wild-type AAV9) (Table 9). […] All animals were dosed intravenously at […] across the screen.

The subject of test [2] is brain, spinal cord, and DRG of the NHPs. The experiment in a line: NGS fold enrichment of synthetic library (passage 3) in NHPs, first cross-species screen. Type of test: in vivo, cynomolgus macaques (Macaca fascicularis). The method, then:
as §1

Test [3] deals with brain. The experiment in a line: NGS fold enrichment of synthetic library (passage 3) in C57Bl/6 mice, first cross-species screen. Type of test: in vivo. The procedure:
as §1

[4] abbreviates: RNA from brain of BALB/c mice, NGS.
The mark [5] stands for this setting: RNA from spinal cord of NHPs, NGS.
The mark [6] stands for this setting: RNA from brain of C57Bl/6 mice, NGS.

For GSGHSSHSVQNQQT, the “Fold enrichment over AAV9 in the brain of Mice (BALB/c)” value (“Fold enrichment over AAV9 … (BALB/c)” for short) in test [1] (RNA NGS, brain of BALB/c mice) is 0.424 fold. Also, the “Fold enrichment over AAV9 in the brain of NHPs” value in test [2] (RNA NGS, brain of NHPs) amounted to 3.339 fold. Also, the “Fold enrichment over AAV9 in the spinal cord of NHPs” value in test [2] (RNA NGS, spinal cord of NHPs) was determined as 3.318 fold. For the same sequence, the “Fold enrichment over AAV9 in the brain of Mice (C57Bl/6)” value (shortened to “Fold enrichment over AAV9 … (C57Bl/6)”) in test [3] (RNA NGS, brain of C57Bl/6 mice) turned out to be 0.942 fold.
Regarding GTEQTRQSGQNQQT, in test [1] (setting [4]), the “Fold enrichment over AAV9 … (BALB/c)” value was 0.756 fold. Also, in test [2] (RNA from brain of NHPs, NGS), the “Fold enrichment over AAV9 in the brain of NHPs” value worked out at 1.188 fold. In addition, in test [2] (setting [5]), the “Fold enrichment over AAV9 in the spinal cord of NHPs” value is given as 0.132 fold. For the same sequence, the “Fold enrichment over AAV9 … (C57Bl/6)” value in test [3] (setting [6]) is recorded as 0.756 fold.
GDAGVRSSGQNQQT: the “Fold enrichment over AAV9 … (BALB/c)” value in test [1] (RNA NGS, brain of BALB/c mice) amounted to 1.193 fold. The “Fold enrichment over AAV9 in the brain of NHPs” value in test [2] (RNA NGS, brain of NHPs) is 2.068 fold. Also, the “Fold enrichment over AAV9 in the spinal cord of NHPs” value in test [2] (RNA NGS, spinal cord of NHPs) amounted to 3.918 fold. In addition, in test [3] (RNA NGS, brain of C57Bl/6 mice), the “Fold enrichment over AAV9 … (C57Bl/6)” value was 1.033 fold.
For GSGASESHRQNQQT, in test [1] (setting [4]), the “Fold enrichment over AAV9 … (BALB/c)” value was 0.313 fold. In addition, in test [2] (RNA from brain of NHPs, NGS), the “Fold enrichment over AAV9 in the brain of NHPs” value is listed as 1.350 fold. In addition, the “Fold enrichment over AAV9 in the spinal cord of NHPs” value in test [2] (setting [5]) is 0.850 fold. For the same sequence, in test [3] (setting [6]), the “Fold enrichment over AAV9 … (C57Bl/6)” value was 0.325 fold.
Turning to GSGQNRAQIGTQQT, in test [1] (setting [4]), the “Fold enrichment over AAV9 … (BALB/c)” value was determined as 0.654 fold. For the same sequence, the “Fold enrichment over AAV9 in the brain of NHPs” value in test [2] (RNA from brain of NHPs, NGS) was 1.138 fold. Further, in test [2] (setting [5]), the “Fold enrichment over AAV9 in the spinal cord of NHPs” value is given as 0.469 fold. The “Fold enrichment over AAV9 … (C57Bl/6)” value in test [3] (setting [6]) came out at 0.776 fold.
With GSGQNQQSALRTQT, the “Fold enrichment over AAV9 … (BALB/c)” value in test [1] (RNA NGS, brain of BALB/c mice) came out at 1.421 fold. In addition, the “Fold enrichment over AAV9 in the brain of NHPs” value in test [2] (RNA NGS, brain of NHPs) amounted to 1.568 fold. Besides, the “Fold enrichment over AAV9 in the spinal cord of NHPs” value in test [2] (RNA NGS, spinal cord of NHPs) was determined as 1.913 fold. Also, the “Fold enrichment over AAV9 … (C57Bl/6)” value in test [3] (RNA NGS, brain of C57Bl/6 mice) is given as 1.581 fold.
For GLGYPGSSGQNQQT, the “Fold enrichment over AAV9 … (BALB/c)” value in test [1] (RNA NGS, brain of BALB/c mice) came to 0.577 fold. Moreover, the “Fold enrichment over AAV9 in the brain of NHPs” value in test [2] (RNA NGS, brain of NHPs) amounted to 1.763 fold. In test [2] (RNA NGS, spinal cord of NHPs), the “Fold enrichment over AAV9 in the spinal cord of NHPs” value is recorded as 7.090 fold. For the same sequence, the “Fold enrichment over AAV9 … (C57Bl/6)” value in test [3] (RNA NGS, brain of C57Bl/6 mice) was determined as 0.929 fold.
Taken in the same sequence, the figures for GSGPILGQLQNQQT were 0.123 fold, 2.097 fold, 2.058 fold and 0.470 fold.
Consider GVHDMRVSGQNQQT, for which the “Fold enrichment over AAV9 … (BALB/c)” value in test [1] (RNA NGS, brain of BALB/c mice) is listed as 0.818 fold. Moreover, in test [2] (RNA NGS, brain of NHPs), the “Fold enrichment over AAV9 in the brain of NHPs” value came to 1.032 fold. Also, the “Fold enrichment over AAV9 in the spinal cord of NHPs” value in test [2] (RNA NGS, spinal cord of NHPs) was 8.083 fold. The “Fold enrichment over AAV9 … (C57Bl/6)” value in test [3] (RNA NGS, brain of C57Bl/6 mice) amounted to 1.171 fold.
The like results for GSGQNQQSAREGLT were, in that order, 1.104 fold, 3.111 fold, 5.632 fold and 1.221 fold.
Turning to GSLYGQSLGQNQQT, the “Fold enrichment over AAV9 … (BALB/c)” value in test [1] (setting [4]) was determined as 0.843 fold. Moreover, the “Fold enrichment over AAV9 in the brain of NHPs” value in test [2] (RNA from brain of NHPs, NGS) stood at 1.348 fold. Further, the “Fold enrichment over AAV9 in the spinal cord of NHPs” value in test [2] (setting [5]) amounted to 11.248 fold. In addition, the “Fold enrichment over AAV9 … (C57Bl/6)” value in test [3] (setting [6]) worked out at 0.894 fold.
Consider GSGEAARYEQNQQT, for which the “Fold enrichment over AAV9 … (BALB/c)” value in test [1] (RNA NGS, brain of BALB/c mice) is given as 0.125 fold. In addition, the “Fold enrichment over AAV9 in the brain of NHPs” value in test [2] (RNA NGS, brain of NHPs) is 1.020 fold. The “Fold enrichment over AAV9 in the spinal cord of NHPs” value in test [2] (RNA NGS, spinal cord of NHPs) is listed as 0.000 fold. For the same sequence, in test [3] (RNA NGS, brain of C57Bl/6 mice), the “Fold enrichment over AAV9 … (C57Bl/6)” value came to 0.107 fold.
Taken in the same sequence, the figures for GRGQVVSTHQNQQT were 0.561 fold, 1.607 fold, 3.318 fold and 0.931 fold.

The values are drawn from patent publication US20260250318A1, “COMPOSITIONS AND METHODS FOR CROSSING THE BLOOD BRAIN BARRIER” (VOYAGER THERAPEUTICS, INC., priority 2022, published 2026).
